Data set [1] can be described thus: Metabolic stability in human liver microsomes (Human MST). It is filed as in vitro ADME. As to conditions: pooled human liver microsomes, pH 7.6; human liver microsomes 1 mg/mL, 1 μM compound, NADPH 1 mM, 37° C.; read-out: Human MST t1/2. The essentials: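 Pooled human liver microsomes (1 mg/mL protein) with compound at 1 µM, 0.1 M TRIS pH 7.6 and 5 mM MgCl2, at 37 °C. Reaction started with 1 mM NADPH and quenched in solvent at several time points. Parent compound measured by LC-MS/MS; t½ from slope of log concentration–time plot.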
In general terms: Microsomes from liver hold many membrane-bound enzymes, among them those of drug oxidation.

In data set [2] the target is T1, human GABAA α5β3γ2s receptor (Homo sapiens, UniProt P18507+P31644).
T1 sequence (P18507 1-475): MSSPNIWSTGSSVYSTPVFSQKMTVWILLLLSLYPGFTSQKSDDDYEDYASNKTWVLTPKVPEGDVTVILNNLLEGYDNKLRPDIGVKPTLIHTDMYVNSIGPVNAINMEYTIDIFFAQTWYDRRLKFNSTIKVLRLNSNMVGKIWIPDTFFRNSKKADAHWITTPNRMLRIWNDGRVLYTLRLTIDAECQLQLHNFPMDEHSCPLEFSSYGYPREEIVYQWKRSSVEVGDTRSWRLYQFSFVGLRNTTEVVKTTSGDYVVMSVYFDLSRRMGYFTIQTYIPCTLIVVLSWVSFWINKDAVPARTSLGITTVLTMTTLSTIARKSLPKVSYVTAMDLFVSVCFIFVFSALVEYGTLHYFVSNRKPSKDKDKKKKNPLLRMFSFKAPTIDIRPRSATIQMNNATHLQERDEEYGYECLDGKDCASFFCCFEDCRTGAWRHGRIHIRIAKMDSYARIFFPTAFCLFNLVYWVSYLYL
T1 sequence (P31644 1-462): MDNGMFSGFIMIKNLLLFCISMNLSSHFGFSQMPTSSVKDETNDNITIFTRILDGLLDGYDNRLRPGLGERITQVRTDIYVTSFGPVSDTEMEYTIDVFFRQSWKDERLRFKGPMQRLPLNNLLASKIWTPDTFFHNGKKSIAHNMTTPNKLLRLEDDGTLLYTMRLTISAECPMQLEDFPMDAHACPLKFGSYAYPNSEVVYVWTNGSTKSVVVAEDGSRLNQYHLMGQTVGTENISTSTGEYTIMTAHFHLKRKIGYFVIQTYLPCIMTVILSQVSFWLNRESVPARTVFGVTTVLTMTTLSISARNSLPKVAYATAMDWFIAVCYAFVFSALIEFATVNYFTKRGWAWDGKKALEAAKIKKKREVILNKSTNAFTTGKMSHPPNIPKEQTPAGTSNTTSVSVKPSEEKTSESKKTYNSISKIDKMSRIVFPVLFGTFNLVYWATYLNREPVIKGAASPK
In words: Assay A: in vitro inhibition of 3H-flumazenil binding, HEK cells expressing human GABAA α5β3γ2s receptor. As to conditions: 3H-flumazenil 1 nM, HEK-293 membranes, 40 min at 2° C.; Ki from IC50 by Cheng and Prusoff. In outline: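 Membranes from HEK-293 cells stably expressing recombinant human GABAA α5β3γ2s, 15-50 µg protein per assay in 50 mM Tris-citrate pH 7.1; non-specific binding defined with 1 μM clonazepam (final). Bound radioactivity collected by GF/C filtration and scintillation counting; IC50 from non-linear regression of specific binding, single concentration when screening.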

Molecules are shown by their SMILES. Where only a bound is given, the exact number is not on record here.

With `Cc1nnn(-c2ccc(C(F)F)cc2)c1COc1ccc(-n2cnc(C(=O)O)c2)nn1` [Example 37, 1-[6-({1-[4-(difluoromethyl)phenyl]-4-methyl-1H-1,2,3-triazol-5-yl}methoxy)pyridazin-3-yl]-1H-imidazole-4-carboxylic acid], the half-life at 1 μM in data set [1] is more than 2.17 h. Moreover, the inhibition constant (Ki) in data set [2] stood at 0.81 nM.

In the case of `Cc1nnn(-c2ccc(C(F)F)cc2)c1COc1ccc(-n2cnc(CO)c2)nn1` [Example 38, {1-[6-({1-[4-(difluoromethyl)phenyl]-4-methyl-1H-1,2,3-triazol-5-yl}methoxy)pyridazin-3-yl]-1H-imidazol-4-yl}methanol], the half-life at 1 μM in data set [1] was more than 2.17 h. For the same compound, the Ki in data set [2] came out at 0.2 nM.

For `Cc1nnn(-c2ccc(C(F)F)cc2)c1COc1ccc(-n2cnc(C(C)(C)O)c2)nn1` [Example 39, 2-{1-[6-({1-[4-(difluoromethyl)phenyl]-4-methyl-1H-1,2,3-triazol-5-yl}methoxy)pyridazin-3-yl]-1H-imidazol-4-yl}propan-2-ol], in data set [1], the half-life at 1 μM is more than 2.17 h. The compound also registered a Ki in data set [2] of 0.14 nM.

As for `Cc1nnn(-c2ccc(C(F)F)cc2)c1COc1ccc(-n2cnc(C(C)O)c2)nn1` (centres unmarked) [Example 40], in data set [1], the half-life at 1 μM was more than 2.17 h. In addition, the Ki in data set [2] came out at 0.16 nM.

As usually defined, the Ki is the dissociation constant of the complex between target and ligand, obtained from inhibition or displacement. High values mean weaker binding, low ones tighter binding.

The values are drawn from patent US10941137B2, “Difluoromethyl-phenyl triazoles” (Boehringer Ingelheim International GmbH, priority 2018, dated 2021).
